Patent US20260234185A1, “ANTI-AGING COMPOSITION COMPRISING PEPTIDE COMPLEX AS ACTIVE INGREDIENT” (priority 2023, published 2026)
Where no end group is shown, it is not given here.

Key:
sirtuin 1 (SIRT1) gene = experiment: RT-PCR of SIRT1 gene expression in palmitate-treated adipocytes; format: cell-based; details: 3T3-L1 adipocytes, 25 μM palmitate 30 minutes; 0.2, 2, 20 μg/mL; 24 hours; RT-PCR vs palmitate control (PA) (FIGS. 4a, 4b)
Method: (§1) An experiment was performed to determine whether the peptide complex prepared in Preparation Example 1 increases the gene expression of longevity-related genes, FGF21, SIRT1, AMPK, and FOXO3A, in adipocytes in a state of insulin metabolic disorder induced by palmitate treatment.
(§2) When 3T3-L1 preadipocytes reached 80% confluence, they were seeded at 5×10^3 cells/well in a 96-well plate and used for the experiment. Two days after reaching confluence, the medium was replaced with differentiation-inducing medium to induce the differentiation into adipocytes, and two days after the induction, the medium was cultured for 2 days in a medium containing 10% FBS and 10 μg/mL insulin, and then the medium was replaced with 10% FBS every 2 days until their differentiation into adipocytes. After differentiation was complete, the medium was replaced with glucose-free medium, cultured for 16 hours, and then starvation was induced by culturing for 40 minutes in 100 μL KPPH buffer containing 2% BSA. After treating with 25 μM palmitate for 30 minutes, the peptide complexes were treated at concentrations of 0.2 μg/mL, 2 μg/mL, and 20 μg/mL, cultured for 24 hours, and RNA was extracted after 24 hours and RT-PCR was performed. […] Subsequently, the mRNA expression pattern was determined by agarose gel electrophoresis.

FOXO3A gene = experiment: RT-PCR of FOXO3A gene expression in palmitate-treated adipocytes; format: cell-based; details: 3T3-L1 adipocytes, 25 μM palmitate 30 minutes; 0.2, 2, 20 μg/mL; 24 hours; RT-PCR vs palmitate control (PA) (FIGS. 4a, 4b)
Method: as §1, §2

SIRT1 = experiment: Western blot of SIRT1 expression in myocytes with palmitate-induced insulin metabolic disorder; format: cell-based, mouse; details: C2C12 myocytes in insulin metabolic disorder induced by palmitate treatment; 0.2, 2, 20 μg/mL; 24 hours; Western blot (FIGS. 7a, 7b)
Method: (§3) An experiment was performed to determine whether the peptide complex increases AMPK phosphorylation and SIRT1 expression levels in myocytes in a state of insulin metabolic disorder induced by palmitate treatment.
(§4) C2C12 cells, mouse-derived myoblasts, were cultured in DMEM medium containing 1% P/S and 2% BCS. When the cell confluency reached 70-80%, the cells were seeded in a 6-well culture plate. When the cell confluency in the 6-well culture plate reached 100%, the medium was replaced with differentiation medium (1% P/S, 2% horse serum), and thereafter, the differentiation medium (1% P/S, 2% horse serum) was replaced once every two days. Five days after the first replacement, the peptide complex was treated at concentrations of 0.2 μg/mL, 2 μg/mL, and 20 μg/mL and cultured for 24 hours. The group untreated with the peptide complex was used as the control. After dissolving by adding dissolution buffer thereto, the proteins obtained were centrifuged at 4° C. and 12,000 rpm for 30 minutes, and quantified using a BCA kit. The proteins were subjected to sodium dodecyl sulfate-polyacrylamide gel electrophoresis (SDS-PAGE) and then electrotransferred onto a membrane. The membrane with the proteins attached was blocked by treating it with 5% skim milk, and then the primary antibody was reacted overnight at 4° C. […]

[1] = system: AMP-activated protein kinase (AMPK); experiment: Western blot of AMPK phosphorylation in palmitate-treated adipocytes (insulin metabolic disorder); format: cell-based; details: 3T3-L1 adipocytes, 25 μM palmitate 30 minutes; 0.2, 2, 20 μg/mL; 24 hours; Western blot (FIGS. 3a, 3b)
Method: An experiment was performed to determine whether the peptide complex prepared in Preparation Example 1 increases the phosphorylation of AMP-activated protein kinase (AMPK) and the expression level of SIRT1 (sirtuin1) protein in adipocytes in a state of insulin metabolic disorder induced by palmitate treatment.
When 3T3-L1 preadipocytes reached 80% confluence, they were seeded at 5×10^3 cells/well in a 96-well plate and used for the experiment. Two days after reaching confluence, the medium was replaced with a differentiation-inducing medium to induce the differentiation into adipocytes, and two days after the induction, the cells were cultured for 2 days in a medium containing 10% FBS and 10 μg/mL insulin, and then the medium was replaced with 10% FBS every 2 days until their differentiation into adipocytes. Once differentiation was complete, the medium was replaced with a serum-free medium and cultured for 4 hours to induce starvation. After 30 minutes of treatment with 25 μM palmitate, the peptide complexes were treated at concentrations of 0.2 μg/mL, 2 μg/mL, and 20 μg/mL and incubated for 24 hours. After dissolving by adding dissolution buffer, the proteins obtained by centrifugation at 4° C. and 12,000 rpm for 30 minutes were quantified using a BCA kit. […]

AMPK = experiment: Western blot of AMPK phosphorylation in myocytes with palmitate-induced insulin metabolic disorder; format: cell-based, mouse; details: C2C12 myocytes in insulin metabolic disorder induced by palmitate treatment; 0.2, 2, 20 μg/mL; 24 hours; Western blot (FIGS. 7a, 7b)
Method: as §3, §4

peptide complex: prepared by mixing equal amounts of the peptide of SEQ ID NO: 1 (LKTRN) and the peptide of SEQ ID NO: 2 (KGSATGWMA) (also: mixture of two peptides)
increased: expression of sirtuin 1 (SIRT1) gene (sirtuin 1 (SIRT1) gene) | expression of FOXO3A gene (FOXO3A gene) | expression level of SIRT1 protein (SIRT1) | phosphorylation of AMPKα [1] | phosphorylation of AMPK (AMPK)
